Measurements published in patent US20090232793A1, “Elastase inhibitor and acute leukemia” (YEDA RESEARCH AND DEVELOPEMENT CO., LTD., priority 2004, published 2009).
The star is where a group is joined. MeOSuc = COC(=O)CCC(=O)*; CH2Cl = ClC*

What was measured:
[1] = test system: primary AML cells; test: cell surface elastase expression by FACS after SDF-1; type: cell-based, human; details: SDF-1 200 ng/ml for 1 and 3 hours
Method: (§1) Cell surface elastase on primary AML and cell lines or on normal CB CD34+ enriched cells was analyzed by flow cytometry as follows: AML cells were incubated with polyclonal rabbit anti-human elastase (Biodesign, Kennebunkport, Me.) for 30 min., washed and antibody binding was detected using secondary anti-rabbit-FITC (FIG. 2A upper panel and 2B).
(§2) In order to confirm our assumption, primary AML cells and normal CB CD34+ cells were treated with SDF-1 (200 ng/ml) for 1 and 3 hours, and expression of cell surface elastase was determined by FACS (FIG. 7).

[2] = test system: normal CB CD34+ cells; test: as above; type: cell-based, human; details: SDF-1 200 ng/ml for 1 and 3 hours
Method: as §1, §2

[3] = test system: AML cells, primary and cell lines; test: in vitro transwell migration assay of AML cells; type: cell-based, human; details: for spontaneous migration: in absence of SDF-1, 30 min pre-treatment, data not shown
Method: (§3) (A) In vitro transwell migration assay of AML cells, either untreated or treated for 30 minutes with elastase inhibitor, 10 μg/ml EI (MeOSuc-AAPV-CMK) (A), anti elastase Abs (B) or a1-antitrypsin (a1-AT) (C). […] (D) Immunocytochemical analysis of primary AML cells on poly-L-lysine coated surfaces. Cells were pre-treated for 30 minutes with elastase inhibitor (EI) or left untreated, allowed to adhere in the absence (−) or presence of 200 ng/ml SDF-1, fixed and indirectly immunolabeled with anti-CXCR4 and anti-elastase Ab. Original magnification 100×.
Elastase inhibitor decreases SDF-1 induced migration of AML cells. To study the role of elastase in migration of AML cells, we evaluated the effect of elastase inhibition on spontaneous, or SDF-1-induced AML migration by in vitro transwell assay. The migration assay was carried out as follows: a total of […] RPMI supplemented with 10% FCS in the presence or absence of 125 ng/mL recombinant human SDF-1 (rhSDF-1) (Peprotech, Rocky Hill, N.J.) was added to the lower chamber of a Costar 24-well transwell plates with […] pore filters (Corning, N.Y.). One hundred thousand primary MNC leukemic cells or AML cell lines with or without pretreatment for 30 min. with elastase inhibitor (EI) MeOSuc-AAPV-CMK (10 μg/ml Calbiochem, La jolla, Calif.) or monoclonal mouse anti human neutrophil elastase Ab (50-100 ul of 70 μg/ml, Dako, Glostrup, Denmark) were added to the upper chamber and were allowed to migrate to the lower chamber for 4 hours at 37° C. Migrating cells were collected from the lower chamber and counted using a FACSCalibur (Becton Dickinson).

[4] = test system: primary AML cells; test: immunocytochemical analysis of protrusions and cell polarization on poly-L-lysine; type: cell-based, human
Method: as §3
When leukemic cells were pre-treated with elastase inhibitor (EI), the formation of SDF-1 induced protrusions was prevented (FIG. 3D). Of note, basal cell polarization in absence of SDF-1 was also abolished by EI.

[5] = test system: human primary AML MNC cells; test: egress of engrafted primary AML cells from BM into the circulation of NOD/SCID mice; type: in vivo; details: for BM (%) human CD45+ cells / PB (%) human CD45+ cells / PB/BM: EI 1 mg x 4 days
Method: In order to test this assumption, primary AML cells (20-40×10^6) were injected into sublethally irradiated NOD/SCID mice to establish human AML-mice chimerism and AML egress from the bone marrow into the circulation was monitored, two-four weeks later, in mice treated with elastase inhibitor as compared to non treated mice.
(§4) More specifically, human primary AML MNC cells (10-30×10^6) or HL60 AML cell line (20×10^6) was injected into NOD/SCID mice. Two-four weeks later, EI (1 mg) was injected once a day for 4 consecutive days. PB from mice asphyxiated with dry ice was collected by cardiac aspiration in heparinized tubes and BM was collected as mentioned above. Percentage of human cells was determined by immunofluorescence for CD45 as described above.

[6] = test system: AML CXCR4 expression; test: cell surface CXCR4 expression on AML cells by FACS; type: cell-based, human; details: data not shown
Text: To test whether the decreased migration by elastase inhibition is eventually due to reduction in CXCR4 expression, we examined the effect of elastase inhibition on AML CXCR4 expression. […] Thus, it appears that the role of elastase in migration of AML cells is not working via CXCR4 regulation.

[7] = test system: normal CD34+ enriched cord blood (CB) cells; test: proliferation and CD34+/38- percentage of normal cord blood cells; type: cell-based, human
Method: Primary AML cells, AML cell lines and human cord blood (CB) cells with or without 10 μg/ml elastase inhibitor (EI), were cultured for 3-7 days and the number of viable cells was determined using trypan blue exclusion (A). Enriched CD34+ CB cells from full term deliveries were grown in RPMI/10% FCS with SCF, FLT3L and IL6. The percentage of CD34+/38− cells from the total enriched CD34+ CB cells cultured with and without EI was determined by FACS (B).
(§5) To test the role of elastase in proliferation of AML cells, primary AML cells (1×10^6/ml), AML cell lines (1×10^4/ml) or normal CD34+ enriched cord blood (CB) cells (1×10^5/ml) were grown in RPMI supplemented with 10% FCS with or without elastase inhibitor (10 μg/ml). The number of viable cells was determined on days 0, 1, 3, 5 and 7 using trypan blue exclusion.

[8] = test system: normal CB enriched CD34+ cells; test: homing of normal CB CD34+ cells to the BM of B2nmull NOD/SCID mice; type: in vivo; details: normal human CD34+ enriched cells; EI pre-treated 10 μg/ml; vs untreated cells
Method: (§6) More specifically, human primary AML MNC, enriched CD34+ AML or CB cells at the indicated cell doses were suspended in […] RPMI with 10% FCS incubated for 30 minutes in 37° C. either with or without elastase inhibitor (10 μg/ml) before injection to mice via the dorsal tail vein. Mice were sacrificed 16 hours after transplantation, BM cells flushed from both femurs and tibias bones were harvested and resuspended into single-cell suspension. The percentage of human cells was determined by immunostaining with anti-human CD45-FITC mAB (Immuno Quality Products, Groningen, The Netherlands). Human Fc receptors were blocked with human plasma (1%) and murine Fc receptors by anti-mouse CD16-CD32 (Pharmingen) (1:50). Isotype control antibodies were used in order to exclude false positive cells (BD). After staining, the cells were analyzed on a FACS Calibur (BD) using Cell Quest software.
We next examined the homing of normal enriched CD34+ cells after elastase inhibition. In order to analyze similar primitive stem cell populations, CB CD34+ cells were compared to primary enriched CD34+ AML cells of three other patients (1.5-3×10^6) with different FAB subtypes. As with MNC cells from some patients, inhibition of primary enriched CD34+ AML cells was observed. […]

[9] = test system: U937; test: proliferation, viable cells by trypan blue exclusion; type: cell-based, human; details: EI 10 μg/ml, 7 days in culture
Method: as §5
(§7) The effect of EI on the proliferative rate of primary MNC AML cells and AML cell lines (ML-2, U937) was evaluated after 3-7 days respectively in culture. […] After 7 days in culture the number of ML2 and U937 was increased and cell proliferation was inhibited by culturing cells in the presence of EI (FIG. 6A).

[10] = test system: primary AML cells; test: as above; type: cell-based, human; details: primary MNC AML cells; EI 10 μg/ml; 3 days in culture
Method: as §5, §7

[11] = test system: ML-2; test: as above; type: cell-based, human; details: ML2; EI 10 μg/ml; 7 days in culture
Method: as §5, §7

[12] = test system: primary human AML cells; test: homing of human AML cells to the BM of B2nmull NOD/SCID mice; type: in vivo; details: for homing into the NOD/SCID mice BM: 30 min incubation with EI 10 μg/ml before injection, 16 hours
Method: In order to assess the effect of elastase inhibition on the in vivo migration (or homing) of human AML cells to the BM, primary AML mononuclear cells (MNC) cells (5×10^6) were injected into sublethally irradiated B2nmull NOD/SCID mice, either untreated or after 30 minute incubation with EI […].
as §6

[13] = test system: HL60 AML cell line; test: egress of engrafted HL60 cells from BM into the circulation of NOD/SCID mice; type: in vivo, human
Method: as §4

## SDF-1: chemokine, also called pre-B-cell growth-stimulating factor; recombinant human SDF-1 (Peprotech)
[1]
  cell surface elastase expression: increase
[2]
  cell surface elastase expression: decreases

## a1-antitrypsin
[3]
  spontaneous migration: affected

## MeOSuc-AAPV-CH2Cl [EI]
[4]; 30 min pre-treatment, 200 ng/ml SDF-1
  formation of SDF-1 induced protrusions: prevented
[4]; in absence of SDF-1
  basal cell polarization: abolished
[5]; human primary cells, EI 1 mg once a day, 4 consecutive days, vs untreated mice
  AML cell egress to the PB: decreased
[5]; patient #1 M2
  BM (%) human CD45+ cells: 80%
  PB (%) human CD45+ cells: 6%
  PB/BM: 0.07
[5]; patient #2 M4
  BM (%) human CD45+ cells: 50%
  PB (%) human CD45+ cells: 2.5%
  PB/BM: 0.05
[5]; patient #3 M4
  BM (%) human CD45+ cells: 12.7%
  PB (%) human CD45+ cells: 0.5%
  PB/BM: 0.039
[5]; patient #4
  BM (%) human CD45+ cells: 16.9%
  PB (%) human CD45+ cells: 0.25%
  PB/BM: 0.014
[6]
  level of cell surface CXCR4 expression: did not change
[7]; 3 days in culture in the presence of cytokines (SCF, FLT3L, IL6) and EI
  percentage of primitive progenitor cells CD34+/38−: significantly increased
[7]; normal CB CD34+ cells, EI 10 μg/ml
  proliferation rate: enhanced
[8]
  homing to the murine BM: increased
[3]
  spontaneous migration: also reduced
[3]; pre-incubation 30 min with 5-10 μg/ml EI, toward 125 ng/ml SDF-1, 4 hours, p=0.039
  SDF-1 dependent migration of the cells: significantly reduced
[9]
  cell proliferation: inhibited
[10]
  number of viable AML cells: significantly decreased
[11]
  cell proliferation: inhibited
[12]; M2 and M4 primary AML cells, vs untreated cells
  homing into the NOD/SCID mice BM: significantly decreased
[12]; enriched CD34+ AML progenitors, EI pre-treated 10 μg/ml, vs untreated cells
  homing to the murine BM: decreased
[12]; primary M1 and M5 AML cells
  homing into the NOD/SCID mice BM: not inhibited but rather increased
[13]; HL-60, EI 1 mg x 4 days
  BM (%) human CD45+ cells: 4%
  PB (%) human CD45+ cells: 2.4%
  PB/BM: 0.6
[13]; human AML line, EI 1 mg once a day, 4 consecutive days, vs untreated mice
  AML cell egress to the PB: decreased
